Like-named read-outs stand apart in the source and are kept apart here. Blank lines part the entries; values can stand above or below the molecule they belong to.
Assays:
[1] = target: CLK3 (Homo sapiens, UniProt P49761); assay: CLK3 kinase activity assay (Z-lyte, Ser/Thr 18 peptide)
[2] = target: T1, CLK2 (Homo sapiens, UniProt P49760); assay: CLK2 kinase activity assay (Z-lyte, Ser/Thr 6 peptide); type: biochemical
T1 construct: purchased Thermo Fisher (Life Technologies), Z'-LYTE Kinase Assay Kits
T1 sequence (P49760 whole entry): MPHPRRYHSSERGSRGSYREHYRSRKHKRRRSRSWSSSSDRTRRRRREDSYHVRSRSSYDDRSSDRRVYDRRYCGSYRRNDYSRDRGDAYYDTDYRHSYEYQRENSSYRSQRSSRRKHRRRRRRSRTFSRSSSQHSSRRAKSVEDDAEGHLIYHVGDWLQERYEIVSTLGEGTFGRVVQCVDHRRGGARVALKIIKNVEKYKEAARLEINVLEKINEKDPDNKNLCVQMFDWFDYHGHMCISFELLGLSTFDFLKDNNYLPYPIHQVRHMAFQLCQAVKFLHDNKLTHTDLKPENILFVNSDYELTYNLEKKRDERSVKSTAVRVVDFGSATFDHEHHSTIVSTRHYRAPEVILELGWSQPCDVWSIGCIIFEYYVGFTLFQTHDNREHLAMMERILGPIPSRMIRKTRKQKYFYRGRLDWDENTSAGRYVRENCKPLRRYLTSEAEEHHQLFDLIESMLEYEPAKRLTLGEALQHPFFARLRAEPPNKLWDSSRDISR
Procedure: All reactions were performed in duplicate.

[3] = test system: Wnt-responsive Sp5-Luc reporter in SW480 colon carcinoma cells; assay: Wnt activity screening assay (Sp5-Luc reporter); type: cell-based; details: Homo sapiens; SW480 Sp5-Luc reporter, 36 to 48 hours; read-out: EC50
Text: The screening assay for Wnt activity is described as follows. Reporter cell lines can be generated by stably transducing cancer cell lines (e.g., colon cancer) or primary cells (e.g., IEC-6 intestinal cells) with a lentiviral construct that includes a Wnt-responsive promoter driving expression of the firefly luciferase gene.
SW480 colon carcinoma cells were transduced with a lentiviral vector expressing luciferase with a human Sp5 promoter consisting of a sequence of eight TCF/LEF binding sites. […] These stably transduced SW480 cells were expanded in cell culture and used for all further screening activities. […] For Sp5-Luc reporter gene assays, the cells were plated at 4,000 cells/well in 384-well plates with a DMEM medium containing 1% fetal bovine serum, and 1% Penicillin-Streptomycin and incubated for 36 to 48 hours at 37° C. and 5% CO2. Following incubation, 15 μL of BriteLite Plus luminescence reagent (Perkin Elmer) was added to each well of the 384-well assay plates. The plates were placed on an orbital shaker for 2 min and then luminescence was quantified using the Envision (Perkin Elmer) plate reader.

[4] = test system: SW480 colorectal cancer cells; assay: Gene expression qRT-PCR in SW480 cells; type: cell-based; details: Homo sapiens, SW480, 3 μM, 24 hours, relative to DMSO
Procedure: SW480 colorectal cancer cells were plated at 1×10^4 cells per well into 96-well plates (Olympus). Compounds were diluted in cell culture media and added to the cells at a final concentration of 3 μM. Cells were treated with vehicle (DMSO) and compounds for 24 hours. N=3 biological replicates per conditions.
Following treatment, cells were lysed, and cDNA was generated using the Fastlane Cell cDNA Kit (Qiagen).
384-well PCR plates with pre-spotted primers for CLK1, CLK2, CLK3, DVL2, LRP5, SRSF1, SRSF3, SRSF4, SRSF5, TCF7, TCF7L2 were ordered from Bio-Rad. The generated cDNA, along with a SYBR Green qRT-PCR master mix (SsoAdvanced™ Universal SYBR® Green Supermix, Bio-Rad) was added to the PCR plates.
qRT-PCR was performed on the plates using a CFX384 Touch™ Real-Time PCR Detection System (Bio-Rad) with the manufacturer's recommended thermal cycling conditions.
Data from the qRT-PCR assay was normalized to the GAPDH and HPRT1 housekeeping genes and set gene expression fold change was set relative to vehicle-treated cells using the ΔΔCt analysis method.

[5] = recombinant CLK2 kinase, ATP 60 μM, read-out: EC50
[6] = read-out: gene expression fold change CLK1
[7] = read-out: gene expression fold change CLK2
[8] = read-out: gene expression fold change CLK3
[9] = read-out: gene expression fold change DVL2
[10] = read-out: gene expression fold change LRP5
[11] = read-out: gene expression fold change SRSF1
[12] = read-out: gene expression fold change SRSF3
[13] = read-out: gene expression fold change SRSF4
[14] = read-out: gene expression fold change SRSF5
[15] = read-out: gene expression fold change TCF7
[16] = read-out: gene expression fold change TCF7L2

CLK3, sequence (P49761 whole entry): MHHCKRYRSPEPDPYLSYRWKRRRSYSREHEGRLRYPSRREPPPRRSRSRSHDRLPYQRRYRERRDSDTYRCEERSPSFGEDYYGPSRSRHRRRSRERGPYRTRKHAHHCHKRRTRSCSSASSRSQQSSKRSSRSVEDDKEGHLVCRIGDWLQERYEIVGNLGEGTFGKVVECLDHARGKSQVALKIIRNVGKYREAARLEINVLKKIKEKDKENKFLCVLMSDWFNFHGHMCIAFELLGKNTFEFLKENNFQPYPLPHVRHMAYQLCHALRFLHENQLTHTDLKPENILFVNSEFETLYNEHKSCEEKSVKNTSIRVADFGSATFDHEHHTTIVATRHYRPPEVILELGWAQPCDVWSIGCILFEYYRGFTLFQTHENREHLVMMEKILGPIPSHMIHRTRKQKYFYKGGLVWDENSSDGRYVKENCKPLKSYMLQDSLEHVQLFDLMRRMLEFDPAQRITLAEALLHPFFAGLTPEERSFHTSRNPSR

EC50 [1]: 10 nM
EC50 [2, 5]: 1 nM
Structure (SMILES): Cn1ncc(-c2ccc3cnc(NC(=O)c4ccnc(N5CCOCC5)c4)cc3c2)c1CN1CCOCC1 [Compound 13]

EC50 [1]: 54 nM
EC50 [2, 5]: 2 nM
Structure (SMILES): CN1CCN(c2ccc(C(=O)Nc3cc4cc(-c5nncs5)ccc4cn3)cn2)CC1 [Compound 18]

EC50 [3]: 37 nM
Structure (SMILES): CN1CCN(Cc2ccc(NC(=O)c3n[nH]c4ccc(-c5cccnc5)cc34)cn2)CC1 [Compound 36]

EC50 [1]: 161 nM
EC50 [2, 5]: 2 nM
Structure (SMILES): CC(C)Oc1ccc(C(=O)Nc2cc3cc(-c4cnc5n4CCNC5)ccc3cn2)cc1 [Compound 17]

EC50 [1]: 30 nM
EC50 [2, 5]: 1 nM
Structure (SMILES): Cn1cncc1-c1ccc2cnc(NC(=O)c3ccc4c(c3)CNC4)cc2c1 [Compound 15]

EC50 [3]: 165 nM
EC50 [2, 5]: 1 nM
Structure (SMILES): Cc1ncc(C(=O)Nc2cc3cc(-c4cnc(C)n4C)ccc3cn2)s1 [Compound 16]
fold induction at 3 µM [4, 6]: 0.22
fold induction at 3 µM [4, 7]: 0.06
fold induction at 3 µM [4, 8]: 0.59
fold induction at 3 µM [4, 9]: 0.18
fold induction at 3 µM [4, 10]: 0.17
fold induction at 3 µM [4, 11]: 1.92
fold induction at 3 µM [4, 12]: 0.61
fold induction at 3 µM [4, 13]: 0.66
fold induction at 3 µM [4, 14]: 0.54
fold induction at 3 µM [4, 15]: 0.21
fold induction at 3 µM [4, 16]: 0.14

Further lines, the molecule ahead of its results:

Structure (SMILES): CN(C)C(=O)Nc1cncc(-c2ccc3[nH]nc(C(=O)Nc4cccnc4)c3c2)c1 [Compound 34]
EC50 [3]: 176 nM

Structure (SMILES): Cc1n[nH]c2ccc(-c3cncc(OC[C@H](N)Cc4ccccc4)n3)cc12 [Compound 2]
fold induction at 3 µM [4, 6]: 0.01
fold induction at 3 µM [4, 7]: 0.05
fold induction at 3 µM [4, 8]: 0.02
fold induction at 3 µM [4, 9]: 0.05
fold induction at 3 µM [4, 10]: 0.07
fold induction at 3 µM [4, 11]: 0.13
fold induction at 3 µM [4, 12]: 0.05
fold induction at 3 µM [4, 13]: 0.02
fold induction at 3 µM [4, 14]: 0.14
fold induction at 3 µM [4, 15]: 0.32
fold induction at 3 µM [4, 16]: 0.13
EC50 [3]: 253 nM

Structure (SMILES): O=C(Nc1cc2cc(-c3cnn4c3CN(CCF)CC4)ccc2cn1)c1ccnc(OC2CNC2)c1 [Compound 79]
EC50 [1]: 44.3 nM
EC50 [2]: 4.4 nM

Structure (SMILES): CN1CCN(c2nccc3[nH]c(-c4n[nH]c5cc(F)c(-c6cnn(C)c6)cc45)nc23)CC1 [Compound 42]
EC50 [3]: 86 nM

Structure (SMILES): CC(C)CC(=O)Nc1cncc(-c2ccc3[nH]nc(-c4nc5c(-c6cc(F)cc(OCCN(C)C)c6)cncc5[nH]4)c3c2)c1 [Compound 39]
EC50 [3]: 199 nM
EC50 [1]: 10 nM
EC50 [2, 5]: 4 nM

Structure (SMILES): CN1CCC(Oc2cc(NC(=O)c3n[nH]c4cc(F)c(-c5cnn(C)c5)cc34)ccn2)CC1 [Compound 35]
EC50 [1]: 20 nM
EC50 [2, 5]: 1 nM

Structure (SMILES): CN1CCN(c2ccc(NC(=O)c3n[nH]c4ccc(-c5cncc(CN6CCC(F)(F)C6)c5)cc34)cn2)CC1 [Compound 31]
EC50 [3]: 4 nM

Structure (SMILES): CN(C)CCN(C)c1ccc(NC(=O)c2n[nH]c3ccc(-c4cncc(CN5CCCCC5)c4)cc23)cn1 [Compound 6]
fold induction at 3 µM [4, 6]: 0.04
fold induction at 3 µM [4, 7]: 0.06
fold induction at 3 µM [4, 8]: 0.03
fold induction at 3 µM [4, 9]: 0.06
fold induction at 3 µM [4, 10]: 0.05
fold induction at 3 µM [4, 11]: 0.1
fold induction at 3 µM [4, 12]: 0.04
fold induction at 3 µM [4, 13]: 0.01
fold induction at 3 µM [4, 14]: 0.1
fold induction at 3 µM [4, 15]: 0.31
fold induction at 3 µM [4, 16]: 0.07
EC50 [3]: 65 nM
EC50 [1]: 17 nM

Structure (SMILES): COc1ccc(NC(=O)c2n[nH]c3ccc(-c4cncc(CO)c4)cc23)cn1 [Compound 37]
EC50 [3]: 97 nM

Source: patent publication US20220062240A1, “METHODS OF TREATING CANCER USING A CLK INHIBITOR” (BioSplice Therapeutics, Inc., priority 2018, published 2022)
